Legend:
[1] = biological target: T1, recombinant TRX-NtMPO1 fusion protein (Nicotiana tabacum, UniProt A0A1S4BDC4); assay: spectrophotometric amine oxidase assay of recombinant TRX-NtMPO1 with diamine substrates; conditions: for Vmax: substrate kinetics, Lineweaver-Burk plots, three independent extracts
T1 sequence (A0A1S4BDC4 1-790): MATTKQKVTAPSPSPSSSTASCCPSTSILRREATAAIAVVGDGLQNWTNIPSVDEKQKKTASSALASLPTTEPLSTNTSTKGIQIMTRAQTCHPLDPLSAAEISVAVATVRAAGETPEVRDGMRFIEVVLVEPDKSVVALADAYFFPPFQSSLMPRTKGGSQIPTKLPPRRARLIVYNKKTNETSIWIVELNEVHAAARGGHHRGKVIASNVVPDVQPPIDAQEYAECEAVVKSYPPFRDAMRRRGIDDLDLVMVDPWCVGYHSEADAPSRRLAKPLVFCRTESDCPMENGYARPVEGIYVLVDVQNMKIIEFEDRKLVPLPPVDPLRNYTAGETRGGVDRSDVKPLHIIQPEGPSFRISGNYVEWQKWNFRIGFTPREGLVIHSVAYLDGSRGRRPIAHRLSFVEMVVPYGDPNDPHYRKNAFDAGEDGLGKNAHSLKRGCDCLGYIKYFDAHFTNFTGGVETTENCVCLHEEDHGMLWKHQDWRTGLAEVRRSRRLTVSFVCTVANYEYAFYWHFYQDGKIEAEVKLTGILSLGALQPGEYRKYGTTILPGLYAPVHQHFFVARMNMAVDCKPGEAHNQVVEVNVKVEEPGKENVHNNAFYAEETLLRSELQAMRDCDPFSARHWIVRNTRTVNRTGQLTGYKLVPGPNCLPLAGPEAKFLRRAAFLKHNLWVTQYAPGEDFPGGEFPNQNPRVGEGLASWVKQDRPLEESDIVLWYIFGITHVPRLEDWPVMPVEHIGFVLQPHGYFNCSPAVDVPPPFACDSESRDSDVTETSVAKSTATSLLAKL
Method: This modified fragment was cloned into pCR2.1 (Invitrogen) to yield pJGJ367. […] Finally, a 2.6 Kb NcoI-XhoI (partial) fragment was cut from pJGJ369 and ligated into pET32a+ similarly cut, to yield pJGJ389. Plasmid pJGJ389 was transformed into the Rosetta E. coli strain (Novagen, Madison, Wis.) for expression of a recombinant […] protein. Mid-log phase Rosetta/pJGJ389 cells were cultured overnight in LB media supplemented with 100 ug/ml Ampicillin, 30 ug/ml Chloramphenicol, and 0.2 mM isopropyl-β-D-thiogalactoside at 18° C. at 250 rpm. The cells were pelleted, lysed, and the native protein extract incubated with Ni-NTA superflow resin, and the TRX-MPO1 was eluted as per manufacture's instructions (Qiagen, Valencia, Calif.). The TRX-MPO1 enriched extract was mixed 1:1 (v:v) with 100% glycerol and stored at −20° C.

NCCCN = assay: purified protein, by the assay type; conditions: other: substrate kinetics, Lineweaver-Burk plots, three independent extracts; 18.0 °C
Method: Mid-log phase Rosetta/pJGJ389 cells were cultured overnight in LB media supplemented with 100 ug/ml Ampicillin, 30 ug/ml Chloramphenicol, and 0.2 mM isopropyl-β-D-thiogalactoside at 18° C. at 250 rpm. The cells were pelleted, lysed, and the native protein extract incubated with Ni-NTA superflow resin, and the TRX-MPO1 was eluted as per manufacture's instructions (Qiagen, Valencia, Calif.). The TRX-MPO1 enriched extract was mixed 1:1 (v:v) with 100% glycerol and stored at −20° C. […] Background-corrected diamine oxidase rates were graphed as Lineweaver-Burk plots in order to estimate the Vmax and Km of the recombinant TRX -NtMPO1 fusion protein isolated from three independent extracts.

## NCCCN [1,3-diamine propane, 1,3-diaminepropane]
[1]; qualitative, different kinetics for each substrate
  oxidative deamination as substrate by recombinant TRX-MPO1: oxidatively deaminated

## CNCCCCN [N-methylputrescine, N-methyl-1,4 diaminebutane]
[1]
  Vmax: 0.0017 ± 0.0001 mM/min

## NCCCCCN [cadaverine]
[1]
  Vmax: 0.0003 ± 0.00004 mM/min

## NCCCCN [putrescine]
[1]
  Vmax: 0.0007 ± 0.0001 mM/min

## recombinant TRX-NtMPO1 fusion protein (Nicotiana tabacum)
NCCCN
  Km: 350 ± 30 µM
  Vmax: 0.7 µM/min
  Vmax/Km: 0.00193 min⁻¹

Source: patent publication US20090055964A1, “MPO1 GENE AND PROTEIN AND METHODS OF USE” (priority 2006, published 2009)
